IC50 and EC50 data for 21 molecules are collected here from patent US11753395B2 (Kinnate Biopharma Inc., priority 2021, dated 2023).

In general, IC50 refers to the point on the concentration scale where inhibition reaches its midpoint. What is called EC50 is the midpoint of the concentration-response curve. Low readings indicate an effect from little substance, high ones a need for much substance.

One assay deals with T1, MET (Homo sapiens, UniProt P08581).
T1 construct: purchased Carna Biosciences 08-151
Briefly: MET Mobility Shift Assay. The settings on record: biochemical assay IC50; 100 μM ATP, 60 minute kinase reaction. In short, it runs like this:
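Recombinant MET at 0.625 nM was pre-incubated 30 min at room temperature with 1.5 μM FLPeptide30 and 10 mM MgCl2 in HEPES buffer with DTT. The reaction was started with 100 μM ATP, ran 60 min, and was stopped with EDTA. Microfluidic mobility-shift % conversion gave IC50.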

The target in assay [1] is T2, Ba/F3-TPR-MET-D1228N cells (Homo sapiens, UniProt P08581, D1228N, cells depend on it).
T2 construct: fused on or other part: P12270 (Nucleoprotein TPR)
Briefly: CellTiter-Glo Cell Viability Assay, Ba/F3-TPR-MET-D1228N. The format is cell-based. The settings on record: 72 hours. In short, it runs like this: (§1)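 Ba/F3 cells carrying TPR-MET or TPR-MET-D1228N, 3000 per well, were exposed for 72 h at 37 °C to 9-point 3-fold compound dilutions at 0.1% DMSO. Viability was read as ATP by CellTiter-Glo 2.0 luminescence, and IC50 values came from curve fitting.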
For orientation: In ATP-based viability assays light output follows the ATP content of the culture.

In another assay the target is T3, MET D1228N (Homo sapiens, UniProt P08581, D1228N).
T3 construct: purchased Signalchem M52-12IG
Briefly: MET D1228N Mobility Shift Assay. The settings on record: biochemical assay IC50; 100 μM ATP, 60 minute kinase reaction. The method, boiled down: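 Enzyme at 0.313 nM preincubated 30 min at room temperature with 1.5 μM FAM-labelled peptide and 10 mM MgCl2 in HEPES buffer with DTT; reaction started with 100 μM ATP, run 60 min, stopped with EDTA. Substrate/product separated by microfluidic mobility shift; IC50 from inhibition of % conversion.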

A further assay concerns the target T4, Ba/F3-TPR-MET cells (Homo sapiens, UniProt P08581).
T4 construct: fused on or other part: P12270 (Nucleoprotein TPR)
The experiment in a line: CellTiter-Glo Cell Viability Assay, Ba/F3-TPR-MET. Type of assay: cell-based. The settings on record: 72 hours. The method, boiled down: as §1

T4 sequence (P08581 whole entry, change not shown, the tested form may be a part): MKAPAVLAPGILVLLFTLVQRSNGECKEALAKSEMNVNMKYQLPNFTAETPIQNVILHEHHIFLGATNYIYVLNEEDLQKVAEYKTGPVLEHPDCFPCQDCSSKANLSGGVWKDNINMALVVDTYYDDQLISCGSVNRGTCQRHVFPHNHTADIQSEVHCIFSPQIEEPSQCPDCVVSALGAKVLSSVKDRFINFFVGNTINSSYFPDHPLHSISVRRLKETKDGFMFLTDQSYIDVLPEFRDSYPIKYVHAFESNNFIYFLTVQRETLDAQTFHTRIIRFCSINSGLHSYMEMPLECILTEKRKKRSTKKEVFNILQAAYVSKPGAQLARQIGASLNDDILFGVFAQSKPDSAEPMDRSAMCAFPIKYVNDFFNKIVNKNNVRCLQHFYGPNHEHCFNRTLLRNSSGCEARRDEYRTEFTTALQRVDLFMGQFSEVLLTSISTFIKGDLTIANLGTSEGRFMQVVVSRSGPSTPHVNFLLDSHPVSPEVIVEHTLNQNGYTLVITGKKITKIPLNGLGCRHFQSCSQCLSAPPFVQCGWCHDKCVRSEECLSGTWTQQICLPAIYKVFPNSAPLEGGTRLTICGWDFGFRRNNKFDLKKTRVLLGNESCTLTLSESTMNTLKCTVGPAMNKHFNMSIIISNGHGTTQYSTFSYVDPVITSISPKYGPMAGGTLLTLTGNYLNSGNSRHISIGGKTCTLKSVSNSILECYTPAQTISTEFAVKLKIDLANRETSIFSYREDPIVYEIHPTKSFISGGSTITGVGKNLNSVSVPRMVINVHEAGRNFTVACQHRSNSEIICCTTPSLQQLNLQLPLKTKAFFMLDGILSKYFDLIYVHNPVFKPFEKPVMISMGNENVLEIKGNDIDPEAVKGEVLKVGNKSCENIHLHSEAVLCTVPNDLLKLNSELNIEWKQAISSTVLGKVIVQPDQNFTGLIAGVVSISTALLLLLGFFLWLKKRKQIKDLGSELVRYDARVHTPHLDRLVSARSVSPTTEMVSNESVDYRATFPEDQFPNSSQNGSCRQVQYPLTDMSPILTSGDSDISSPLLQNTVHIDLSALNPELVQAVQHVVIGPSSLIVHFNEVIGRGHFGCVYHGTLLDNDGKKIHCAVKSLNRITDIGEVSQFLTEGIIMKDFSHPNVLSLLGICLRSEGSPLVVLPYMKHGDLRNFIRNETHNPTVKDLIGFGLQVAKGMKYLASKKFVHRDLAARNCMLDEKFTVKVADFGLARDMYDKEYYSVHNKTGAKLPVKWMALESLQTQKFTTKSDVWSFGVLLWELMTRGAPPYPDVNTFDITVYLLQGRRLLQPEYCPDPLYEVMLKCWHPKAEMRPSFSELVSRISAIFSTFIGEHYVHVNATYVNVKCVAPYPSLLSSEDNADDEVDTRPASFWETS
T1 sequence (P08581 25-1390): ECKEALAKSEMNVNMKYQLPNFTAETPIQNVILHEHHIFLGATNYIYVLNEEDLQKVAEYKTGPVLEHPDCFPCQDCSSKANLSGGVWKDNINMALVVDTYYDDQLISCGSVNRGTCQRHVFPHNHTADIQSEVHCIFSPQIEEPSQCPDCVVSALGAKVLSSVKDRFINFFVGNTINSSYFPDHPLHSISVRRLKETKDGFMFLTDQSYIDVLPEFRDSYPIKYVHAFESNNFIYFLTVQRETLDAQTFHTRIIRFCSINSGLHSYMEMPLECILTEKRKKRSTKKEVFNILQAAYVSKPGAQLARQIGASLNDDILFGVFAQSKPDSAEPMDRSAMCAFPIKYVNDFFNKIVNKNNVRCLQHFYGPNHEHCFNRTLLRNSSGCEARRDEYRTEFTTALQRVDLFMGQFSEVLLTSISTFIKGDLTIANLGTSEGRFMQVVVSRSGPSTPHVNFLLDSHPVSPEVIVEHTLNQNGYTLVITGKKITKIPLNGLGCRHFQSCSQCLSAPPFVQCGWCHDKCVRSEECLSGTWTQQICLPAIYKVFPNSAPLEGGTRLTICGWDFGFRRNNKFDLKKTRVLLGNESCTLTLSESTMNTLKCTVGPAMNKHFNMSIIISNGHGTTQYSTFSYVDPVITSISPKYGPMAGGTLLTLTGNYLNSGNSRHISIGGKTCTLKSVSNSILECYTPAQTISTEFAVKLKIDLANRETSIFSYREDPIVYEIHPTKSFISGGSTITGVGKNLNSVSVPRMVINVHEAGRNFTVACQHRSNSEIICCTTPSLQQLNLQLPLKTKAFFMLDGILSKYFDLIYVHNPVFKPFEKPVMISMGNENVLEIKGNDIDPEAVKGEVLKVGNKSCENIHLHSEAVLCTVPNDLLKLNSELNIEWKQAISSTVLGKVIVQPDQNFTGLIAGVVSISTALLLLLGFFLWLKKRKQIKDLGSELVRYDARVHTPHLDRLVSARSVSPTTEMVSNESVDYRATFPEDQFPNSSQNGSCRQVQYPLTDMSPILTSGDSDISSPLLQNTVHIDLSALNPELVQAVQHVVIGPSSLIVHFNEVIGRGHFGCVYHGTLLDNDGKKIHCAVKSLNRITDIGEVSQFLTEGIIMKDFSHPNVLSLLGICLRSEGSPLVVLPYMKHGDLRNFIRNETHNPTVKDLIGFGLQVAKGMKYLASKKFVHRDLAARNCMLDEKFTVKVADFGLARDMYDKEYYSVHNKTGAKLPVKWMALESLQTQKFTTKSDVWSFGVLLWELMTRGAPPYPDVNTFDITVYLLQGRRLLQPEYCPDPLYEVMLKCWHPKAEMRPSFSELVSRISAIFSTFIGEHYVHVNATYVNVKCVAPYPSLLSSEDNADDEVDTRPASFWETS
T2 sequence (P08581 whole entry D1228N, the tested form may be a part): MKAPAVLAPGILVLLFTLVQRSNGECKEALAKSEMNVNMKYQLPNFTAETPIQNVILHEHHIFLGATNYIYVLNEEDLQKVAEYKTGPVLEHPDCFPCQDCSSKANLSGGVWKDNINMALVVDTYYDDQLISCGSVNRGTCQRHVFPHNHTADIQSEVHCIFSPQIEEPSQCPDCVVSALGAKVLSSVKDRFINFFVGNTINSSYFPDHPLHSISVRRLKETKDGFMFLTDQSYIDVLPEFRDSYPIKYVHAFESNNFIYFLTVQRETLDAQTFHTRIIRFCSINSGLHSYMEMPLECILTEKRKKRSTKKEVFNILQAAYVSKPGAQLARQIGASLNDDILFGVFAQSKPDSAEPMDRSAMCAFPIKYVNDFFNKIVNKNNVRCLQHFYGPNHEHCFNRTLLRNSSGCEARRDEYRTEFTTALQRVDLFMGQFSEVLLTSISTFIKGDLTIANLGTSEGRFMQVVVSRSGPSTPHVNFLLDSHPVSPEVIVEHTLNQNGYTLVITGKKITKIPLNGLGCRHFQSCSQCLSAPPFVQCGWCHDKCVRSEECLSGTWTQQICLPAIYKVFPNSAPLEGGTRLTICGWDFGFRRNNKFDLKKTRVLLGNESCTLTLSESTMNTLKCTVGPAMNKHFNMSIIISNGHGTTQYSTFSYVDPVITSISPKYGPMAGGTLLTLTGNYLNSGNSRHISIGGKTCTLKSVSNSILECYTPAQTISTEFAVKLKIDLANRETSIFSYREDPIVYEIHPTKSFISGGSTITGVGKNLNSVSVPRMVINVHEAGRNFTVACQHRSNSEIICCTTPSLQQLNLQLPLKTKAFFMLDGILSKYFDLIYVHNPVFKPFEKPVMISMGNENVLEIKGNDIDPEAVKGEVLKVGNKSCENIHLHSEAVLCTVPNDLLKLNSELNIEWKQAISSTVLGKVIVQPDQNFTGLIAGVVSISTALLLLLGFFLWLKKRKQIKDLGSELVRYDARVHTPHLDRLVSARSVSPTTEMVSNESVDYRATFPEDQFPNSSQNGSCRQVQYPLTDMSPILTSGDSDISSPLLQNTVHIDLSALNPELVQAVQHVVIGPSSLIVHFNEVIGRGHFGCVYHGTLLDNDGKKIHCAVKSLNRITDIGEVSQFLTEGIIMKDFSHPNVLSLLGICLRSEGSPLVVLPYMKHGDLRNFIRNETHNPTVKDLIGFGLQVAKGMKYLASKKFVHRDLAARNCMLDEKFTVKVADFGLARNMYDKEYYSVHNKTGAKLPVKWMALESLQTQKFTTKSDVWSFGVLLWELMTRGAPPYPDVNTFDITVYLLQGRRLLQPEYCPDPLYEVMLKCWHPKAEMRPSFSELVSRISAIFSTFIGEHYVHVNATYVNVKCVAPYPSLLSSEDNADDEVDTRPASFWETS

Take `CNCCOc1cc2ncnc(Oc3c(F)cc(NC(=O)c4c(OC)ccnc4F)cc3F)c2cc1OC` [Example 7, N-(3,5-difluoro-4-((6-methoxy-7-(2-(methylamino)ethoxy)quinazolin-4-yl)oxy)phenyl)-2-fluoro-4-methoxypyridine-3-carboxamide]: the IC50 at MET and at MET D1228N was ≤ 100 nM in each case. For the same molecule, the half-maximal effective concentration (EC50) in assay [1] fell in the range of 100 to 1000 nM; on Ba/F3-TPR-MET cells, 1000 to 10000 nM.

Take `CNCCCOc1cc2nccc(Oc3cc(F)c(NC(=O)c4cnccc4OC)cc3F)c2cc1OC` [Example 22, N-[2,5-difluoro-4-({6-methoxy-7-[3-(methylamino)propoxy]quinolin-4-yl}oxy)phenyl]-4-methoxypyridine-3-carboxamide]: the IC50 on MET and on MET D1228N was ≤ 100 nM throughout. The EC50 (in assay [1]; at Ba/F3-TPR-MET cells) was 100 to 1000 nM throughout.

For `CNCCOc1cc2nccc(Oc3c(F)cc(NC(=O)c4cnc(C)nc4OC4CC4)cc3F)c2cc1OC` [Example 114, 4-cyclopropoxy-N-[3,5-difluoro-4-({6-methoxy-7-[2-(methylamino)ethoxy]quinolin-4-yl}oxy)phenyl]-2-methylpyrimidine-5-carboxamide], the IC50 on MET and on MET D1228N was ≤ 100 nM in each case. Further, the EC50 (in assay [1]; on Ba/F3-TPR-MET cells) was 100 to 1000 nM in each case.

With `CCOc1ccncc1C(=O)Nc1cc(F)c(Oc2ccnc3cc(OCCCN4CCOCC4)c(OC)cc23)c(F)c1` [Example 28, N-(3,5-difluoro-4-((6-methoxy-7-(3-morpholinopropoxy)quinolin-4-yl)oxy)phenyl)-4-ethoxypyridine-3-carboxamide], the IC50 on MET and on MET D1228N was ≤ 100 nM each time. Further, the EC50 (in assay [1]; at Ba/F3-TPR-MET cells) was ≤ 100 nM throughout.

For `CNCCOc1cc2nccc(Oc3c(F)cc(NC(=O)c4c(OC)ccnc4F)cc3F)c2cc1OC` [Example 4, N-(3,5-difluoro-4-((6-methoxy-7-(2-(methylamino)ethoxy)quinolin-4-yl)oxy)phenyl)-2-fluoro-4-methoxypyridine-3-carboxamide], the IC50 on MET and on MET D1228N was ≤ 100 nM each time. Moreover, the EC50 (in assay [1]; at Ba/F3-TPR-MET cells) was 100 to 1000 nM throughout.

For `COCCOc1cc2nccc(Oc3c(F)cc(NC(=O)c4cnccc4OC4CC4)cc3F)c2cc1OC` [Example 106, 4-cyclopropoxy-N-(3,5-difluoro-4-{[6-methoxy-7-(2-methoxyethoxy)quinolin-4-yl]oxy}phenyl)pyridine-3-carboxamide], the IC50 on MET and at MET D1228N was ≤ 100 nM each time. The EC50 (in assay [1]; on Ba/F3-TPR-MET cells) was ≤ 100 nM throughout.

Take `CNCCOc1cc2nccc(Oc3c(F)cc(NC(=O)c4cnccc4OCCOC)cc3F)c2cc1OC` [Example 67, N-[3,5-difluoro-4-({6-methoxy-7-[2-(methylamino)ethoxy]quinolin-4-yl}oxy)phenyl]-4-(2-methoxyethoxy)pyridine-3-carboxamide]: the IC50 on MET and at MET D1228N was ≤ 100 nM throughout. For the same molecule, the half-maximal effective concentration (EC50) (in assay [1]; on Ba/F3-TPR-MET cells) was 100 to 1000 nM in each case.

Regarding `CNCCOc1cc2nccc(Oc3c(F)cc(NC(=O)c4cnccc4OC)c(F)c3F)c2cc1OC` [Example 50, 4-methoxy-N-(2,3,5-trifluoro-4-((6-methoxy-7-(2-(methylamino)ethoxy)quinolin-4-yl)oxy)phenyl)pyridine-3-carboxamide], the IC50 at MET and on MET D1228N was ≤ 100 nM in each case. In addition, the EC50 (in assay [1]; at Ba/F3-TPR-MET cells) was ≤ 100 nM throughout.

For `C[C@H](O)COc1ccc2c(Oc3c(F)cc(NC(=O)c4cnccc4OC4CC4)cc3F)ccnc2c1` [Example 102, 4-cyclopropoxy-N-[3,5-difluoro-4-({7-[(2S)-2-hydroxypropoxy]quinolin-4-yl}oxy)phenyl]pyridine-3-carboxamide], the IC50 on MET and on MET D1228N was ≤ 100 nM each time. Also, the EC50 (in assay [1]; on Ba/F3-TPR-MET cells) was 100 to 1000 nM in each case.

For the molecule `CNCCCOc1cc2nccc(Oc3ccc(NC(=O)c4cnccc4OC)c(F)c3F)c2cc1OC` [Example 18, N-[2,3-difluoro-4-({6-methoxy-7-[3-(methylamino)propoxy]quinolin-4-yl}oxy)phenyl]-4-methoxypyridine-3-carboxamide], the 50% inhibitory concentration (IC50) on MET and on MET D1228N was ≤ 100 nM in each case. Further, the EC50 in assay [1] was ≤ 100 nM; on Ba/F3-TPR-MET cells it was 100 to 1000 nM.

`COc1cc2nccc(Oc3c(F)cc(NC(=O)c4cnccc4OC)cc3F)c2cc1OC` [Example 34, N-(4-((6,7-dimethoxyquinolin-4-yl)oxy)-3,5-difluorophenyl)-4-methoxypyridine-3-carboxamide]: the IC50 at MET and at MET D1228N was ≤ 100 nM throughout. The EC50 in assay [1] was ≤ 100 nM; at Ba/F3-TPR-MET cells, 100 to 1000 nM.

With `CNCCOc1cc2nccc(Oc3c(F)cc(NC(=O)c4cnccc4OC[C@@H](C)F)cc3F)c2cc1OC` [Example 61, N-[3,5-difluoro-4-({6-methoxy-7-[2-(methylamino)ethoxy]quinolin-4-yl}oxy)phenyl]-4-[(2R)-2-fluoropropoxy]pyridine-3-carboxamide], the IC50 on MET and at MET D1228N was ≤ 100 nM each time. For the same molecule, the EC50 (in assay [1]; on Ba/F3-TPR-MET cells) was ≤ 100 nM each time.

As for `COCCOc1cnc2c(Oc3c(F)cc(NC(=O)c4cnccc4OC)cc3F)ccnc2c1` [Example 139, N-(3,5-difluoro-4-((7-(2-methoxyethoxy)-1,5-naphthyridin-4-yl)oxy)phenyl)-4-methoxypyridine-3-carboxamide], the 50% inhibitory concentration (IC50) at MET and on MET D1228N was ≤ 100 nM in each case. The EC50 (in assay [1]; at Ba/F3-TPR-MET cells) was ≤ 100 nM each time.

With `COc1cc2c(Oc3c(F)cc(NC(=O)c4cnccc4OC)cc3F)ccnc2cc1OCCN1CCOCC1` [Example 29, N-[3,5-difluoro-4-({6-methoxy-7-[2-(morpholin-4-yl)ethoxy]quinolin-4-yl}oxy)phenyl]-4-methoxypyridine-3-carboxamide], the IC50 on MET and at MET D1228N was ≤ 100 nM each time. Also, the EC50 (in assay [1]; at Ba/F3-TPR-MET cells) was ≤ 100 nM each time.

In the case of `COc1cc2nccc(Oc3c(F)cc(NC(=O)c4cnccc4OC)cc3F)c2cc1OC[C@@H](C)O` [Example 124, (R)-N-(3,5-difluoro-4-{[6-(2-hydroxypropoxy)-7-methoxyquinolin-4-yl]oxy}phenyl)-4-methoxypyridine-3-carboxamide], the IC50 at MET and on MET D1228N was ≤ 100 nM in each case. The half-maximal effective concentration (EC50) (in assay [1]; on Ba/F3-TPR-MET cells) was ≤ 100 nM in each case.

For `CNCCOc1ccc2c(Oc3c(F)cc(NC(=O)c4cnccc4OC)cc3F)ccnc2c1` [Example 10, N-(3,5-difluoro-4-((7-(2-(methylamino)ethoxy)quinolin-4-yl)oxy)phenyl)-4-methoxypyridine-3-carboxamide], the concentration for half-maximal inhibition (IC50) on MET and on MET D1228N was ≤ 100 nM throughout. The half-maximal effective concentration (EC50) (in assay [1]; at Ba/F3-TPR-MET cells) was ≤ 100 nM in each case.

Take `COCCOc1cc2nccc(Oc3c(F)cc(NC(=O)c4cnccc4OC)cc3F)c2nc1OC` [Example 137, N-(3,5-difluoro-4-((6-methoxy-7-(2-methoxyethoxy)-1,5-naphthyridin-4-yl)oxy)phenyl)-4-methoxypyridine-3-carboxamide]: the IC50 at MET and at MET D1228N was ≤ 100 nM in each case. The EC50 (in assay [1]; on Ba/F3-TPR-MET cells) was ≤ 100 nM each time.

As for `COc1cc2nccc(Oc3c(F)cc(NC(=O)c4cnccc4OC)cc3F)c2cc1OCCO` [Example 122, N-(3,5-difluoro-4-{[6-(2-hydroxyethoxy)-7-methoxyquinolin-4-yl]oxy}phenyl)-4-methoxypyridine-3-carboxamide], the IC50 at MET and at MET D1228N was ≤ 100 nM each time. Further, the EC50 (in assay [1]; at Ba/F3-TPR-MET cells) was ≤ 100 nM throughout.

With `COc1cc2c(Oc3c(F)cc(NC(=O)c4cnccc4OC)cc3F)ccnc2cc1OC(F)F` [Example 38, N-(4-((7-(difluoromethoxy)-6-methoxyquinolin-4-yl)oxy)-3,5-difluorophenyl)-4-methoxypyridine-3-carboxamide], the IC50 on MET and on MET D1228N was ≤ 100 nM in each case. Further, the EC50 (in assay [1]; at Ba/F3-TPR-MET cells) was > 10000 nM each time.

For the molecule `COc1cc2c(Oc3c(F)cc(NC(=O)c4cnc(C)cc4OC4CC4)cc3F)ccnc2cc1OCCO` [Example 116, 4-cyclopropoxy-N-(3,5-difluoro-4-{[7-(2-hydroxyethoxy)-6-methoxyquinolin-4-yl]oxy}phenyl)-6-methylpyridine-3-carboxamide], the IC50 on MET and on MET D1228N was ≤ 100 nM each time. Moreover, the concentration for a half-maximal effect (EC50) (in assay [1]; on Ba/F3-TPR-MET cells) was ≤ 100 nM each time.

On to `CNCCCOc1cc2nccc(Nc3c(F)cc(NC(=O)c4cnccc4OC)cc3F)c2cc1OC` [Example 19, N-(3,5-difluoro-4-((6-methoxy-7-(3-(methylamino)propoxy)quinolin-4-yl)amino)phenyl)-4-methoxypyridine-3-carboxamide], for which the IC50 at MET and on MET D1228N was ≤ 100 nM throughout. Further, the EC50 (in assay [1]; at Ba/F3-TPR-MET cells) was > 10000 nM each time.
